Literature values as cited in patent publication US20100081862A1, “Composition and method to modify sperm function and increase male gender ratio in mammals” (priority 2008, published 2010).

Tests used:
[1] = system: Hexose Monophosphate Shunt (HMS); settings: bovine oocytes
[2] = system: early-staged mouse embryos; settings: living early-staged mouse embryos, transplanted to produce normal living offspring

CCN(CC)c1cc2c(cc1C)Nc1ccc(N)cc1O2 [BCB, 2-methyl-3-diethylamino-7-amino phenoxazine]
increase in oxidation of glucose through the HMS [1]: 15 fold | increase in glucose metabolism through glycolysis ([1]; compared with the increase through the HMS): somewhat less increase | toxicity of BCB and its metabolites [2]: relatively non-toxic
